For 12 compounds, TGI results are on record in PubChem BioAssay (NCI).

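In this assay, cells in 96-well plates receive the compound at five concentrations for 48 hours. Endpoints are linearly interpolated between the surrounding concentrations. The concentration for full growth arrest is given as TGI.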

Test systems include HCC-2998 colon; T-47D breast; SK-MEL-5 melanoma; COLO 205 colon; UACC-257 melanoma; ACHN renal; OVCAR-3 ovarian; 786-0 renal; K-562 leukemia; DU-145 prostate; NCI-H460 lung; OVCAR-4 ovarian.
Holding throughout (experiment): growth of human tumour cells (NCI), 48 h

Consider `Cc1ccc(C(=O)NC2C(=O)NC(C(C)C)C(=O)N3CCCC3C(=O)N(C)CC(=O)N(C)C(C(C)C)C(=O)OC2C)c2c1Oc1c(c(C(=O)NC3C(=O)NC(C(C)C)C(=O)N4CCCC4C(=O)N(C)CC(=O)N(C)C(C(C)C)C(=O)OC3C)c3nc(-c4ccccc4)c(=O)oc3c1C)N2` (stereo unspecified), for which the TGI in the experiment on HCC-2998 colon is 0.00428 µM; in the experiment on T-47D breast, 0.168 µM; in the experiment with SK-MEL-5 melanoma, 0.0149 µM; with COLO 205 colon, 0.0295 µM; with UACC-257 melanoma it was 0.122 µM; in the experiment with ACHN renal it was 0.801 µM.

For the compound `CCCCCCC(=O)OC[n+]1ccc(-c2c(COC(=O)NC(C)C)c(COC(=O)NC(C)C)c3n2CCC3)cc1`, the TGI in the experiment on HCC-2998 colon, in the experiment on OVCAR-3 ovarian, in the experiment with 786-0 renal, in the experiment with T-47D breast, in the experiment with SK-MEL-5 melanoma and in the experiment on COLO 205 colon was above 100 µM throughout. Also, the TGI with K-562 leukemia, in the experiment with UACC-257 melanoma, in the experiment on DU-145 prostate, in the experiment with NCI-H460 lung, in the experiment with OVCAR-4 ovarian and with ACHN renal was above 100 µM throughout.

On to `[O-]c1c2c(nn1-c1ccc(F)cc1)c1ccccc1c[n+]2Cc1ccccc1`, for which the TGI with HCC-2998 colon turned out to be 24.8 µM; with OVCAR-3 ovarian it was 22.1 µM; in the experiment with SK-MEL-5 melanoma it was 13.4 µM; in the experiment with COLO 205 colon it was 4.52 µM; with K-562 leukemia, 81.4 µM; with UACC-257 melanoma, 30.3 µM. Also, the TGI in the experiment with NCI-H460 lung is 29.7 µM; in the experiment on OVCAR-4 ovarian, 66.2 µM; in the experiment with ACHN renal it was 28 µM.

In the case of `C/C=C\C1OC1(C)c1cc(=O)c2c(C)cc3c(c2o1)C(=O)c1c(O)c(C2CC(C)(N(C)C)C(OC(C)=O)C(C)O2)cc(C2CC(N(C)C)C(O)C(C)O2)c1C3=O` (stereo unspecified), the TGI in the experiment on HCC-2998 colon worked out at 0.00646 µM; with OVCAR-3 ovarian it was 0.0365 µM; with 786-0 renal, 0.0158 µM; in the experiment on T-47D breast it was 0.0324 µM; in the experiment with SK-MEL-5 melanoma, 0.00936 µM; with COLO 205 colon it was 0.00901 µM. The TGI was 0.135 µM with K-562 leukemia; 0.0366 µM with UACC-257 melanoma; 0.0912 µM in the experiment with DU-145 prostate; 0.0129 µM in the experiment on NCI-H460 lung; 0.00888 µM in the experiment with OVCAR-4 ovarian; 0.00575 µM with ACHN renal.

As to `Nc1c(S(=O)(=O)O)cc(S(=O)(=O)O)c2ccc(N=Nc3ccccc3)c(O)c12`, the TGI in the experiment with OVCAR-3 ovarian, in the experiment on 786-0 renal, in the experiment on T-47D breast, with SK-MEL-5 melanoma, with COLO 205 colon and in the experiment on K-562 leukemia was above 100 µM throughout. Besides, the TGI with UACC-257 melanoma, in the experiment on DU-145 prostate, with NCI-H460 lung, in the experiment on OVCAR-4 ovarian and in the experiment with ACHN renal was above 100 µM each time.

Take `CCOC(=O)c1sc2nc(SC)nc3c2c1NC(=O)CN3c1ccc(F)cc1`: the TGI in the experiment on HCC-2998 colon, in the experiment with OVCAR-3 ovarian, in the experiment on SK-MEL-5 melanoma, with COLO 205 colon, in the experiment on K-562 leukemia and with UACC-257 melanoma was above 100 µM each time. Further, the TGI is 97.9 µM with DU-145 prostate, above 100 µM in the experiment with NCI-H460 lung, above 100 µM in the experiment with OVCAR-4 ovarian and 93.4 µM in the experiment with ACHN renal.

On to `CCOC(=O)C(C(=O)OCC)c1cc(-c2cc3ccccc3o2)oc(=O)c1C#N`, for which the TGI is 46.9 µM with HCC-2998 colon; above 100 µM in the experiment with SK-MEL-5 melanoma; 48.7 µM with COLO 205 colon; above 100 µM with K-562 leukemia; 76.4 µM in the experiment with UACC-257 melanoma; above 100 µM in the experiment on NCI-H460 lung. The results for the TGI in the experiment on OVCAR-4 ovarian and in the experiment with ACHN renal were 71.4 µM and above 100 µM, respectively.

In the case of `COc1cc2cc(C(=O)N3CC(CCl)c4ccc(NO)cc43)[nH]c2c(OC)c1OC` (stereo unspecified), the TGI is 1.07 µM with HCC-2998 colon; 0.535 µM in the experiment with OVCAR-3 ovarian; above 42.6 µM in the experiment on T-47D breast; 0.342 µM with SK-MEL-5 melanoma; 2.04 µM in the experiment on COLO 205 colon; 0.965 µM with K-562 leukemia. Also, the TGI with DU-145 prostate is above 31 µM; with NCI-H460 lung, above 37.7 µM; in the experiment on OVCAR-4 ovarian it was 0.774 µM; in the experiment with ACHN renal, 0.723 µM.

As to `O=P1(Oc2ccc(Cl)cc2Cl)Oc2cc3ccccc3cc2O1`, the TGI was 59.6 µM in the experiment with HCC-2998 colon; above 60.7 µM in the experiment on OVCAR-3 ovarian; above 100 µM in the experiment with SK-MEL-5 melanoma; above 100 µM in the experiment with COLO 205 colon; above 100 µM in the experiment with K-562 leukemia; above 100 µM with UACC-257 melanoma. Also, the TGI in the experiment with NCI-H460 lung and in the experiment on OVCAR-4 ovarian was above 100 µM each time.

`CC(=O)NC1C(OCc2ccccc2)OC(CO)C(O)C1OCC(=O)NC(C(=O)NC(CCC(=O)NCCCCCC(=O)Nc1ccc2c(c1)CN1C(=O)c3ccccc3C1=N2)C(N)=O)C(C)C` (stereo unspecified): the TGI was above 100 µM in the experiment on HCC-2998 colon; above 100 µM with OVCAR-3 ovarian; 38 µM in the experiment on 786-0 renal; 68 µM with T-47D breast; 49.6 µM in the experiment with SK-MEL-5 melanoma; above 100 µM in the experiment on COLO 205 colon. The TGI in the experiment with K-562 leukemia is above 100 µM; in the experiment with UACC-257 melanoma, 66.7 µM; with DU-145 prostate, above 100 µM; in the experiment with NCI-H460 lung it was 51.2 µM; with OVCAR-4 ovarian it was 53 µM; in the experiment with ACHN renal it was above 100 µM.

On to `O=C(O)C1=C(CO)Oc2cc3c(cc2C1c1ccc2c(c1)OCO2)OCO3` (stereo unspecified), for which the TGI in the experiment with OVCAR-3 ovarian, in the experiment on SK-MEL-5 melanoma, in the experiment with COLO 205 colon, in the experiment with K-562 leukemia, in the experiment with UACC-257 melanoma and in the experiment with NCI-H460 lung was above 100 µM each time. Also, the TGI with OVCAR-4 ovarian and with ACHN renal was above 100 µM each time.

Take `COc1ccc2c(O)c1-c1c(OC)ccc(c1O)SSc1ccc(OC)c(c1O)-c1c(OC)ccc(c1O)SS2`: the TGI in the experiment on OVCAR-3 ovarian was above 100 µM; with 786-0 renal, above 100 µM; with T-47D breast it was 62.9 µM; with SK-MEL-5 melanoma, above 100 µM; in the experiment on COLO 205 colon, above 100 µM; with K-562 leukemia, 97.1 µM. Besides, the TGI in the experiment with UACC-257 melanoma was above 100 µM; with DU-145 prostate it was above 100 µM; in the experiment on OVCAR-4 ovarian, 69.8 µM; in the experiment on ACHN renal it was 18.5 µM.
